Laboratory results: publication PMC11109052, “Metabolism characterization and toxicity of N-hydap, a marine candidate drug for lung cancer therapy by LC–MS method” (Natural Products and Bioprospecting, 2024)

How the values were obtained:
UGT2B7 = target: T1, UGT2B7 (Homo sapiens, UniProt P16662); test: Incubation with recombinant human UGT isoforms: UGT2B7; assay type: in vitro ADME; settings: recombinant UGT 2 μg/mL
T1 construct: purchased Cypex (Scotland, UK)
Experimental: Incubation of N-hydap (2.5 μM) with eight recombinant human CYP enzymes (CYP1A2, CYP2B6, CYP2C9, CYP2C19, CYP2D6, CYP3A4, CYP4A11 and CYP4F2) at three enzyme concentrations (2, 4, and 20 μg/mL) was conducted following the same procedure as described above for microsomes. Subsequently, incubation with N-hydap (1, 2.5, and 6 μM) and twelve recombinant human UGT isoforms (UGT1A1, UGT1A3, UGT1A4, UGT1A6, UGT1A7, UGT1A8, UGT1A9, UGT1A10, UGT2B4, UGT2B7, UGT2B15 and UGT2B17) was performed, with the enzyme concentration used at 2 μg/mL. All reactions were carried out in triplicate.

Cyp1a2 = test: Western blot protein level after 7 days gavage: CYP1A2; assay type: in vivo, mice; parameters: key to CYP1A2 Protein expression: ↑: up-regulation; ↓: down-regulation; –: no change
Experimental: Mice were randomly divided into four groups, with eight animals in each group. The mice received oral pretreatment with N-hydap for 7 days at doses of 2, 5, and 10 mg/kg/day, which were considered as the low dose, medium dose, and high dose, respectively. Correspondingly, the control group received PBS. On the 8th day, the liver and kidneys were removed, and organs from eight mice per group were combined to prepare MLMs and MKMs using the detailed procedures above. Subsequently, we determined the activity of CYP and UGT enzymes by specific substrate metabolized with MLMs (0.5 mg/mL) and MKMs (0.2 mg/mL) in vitro. Specifically, the following selective substrates were used for the respective enzymes: PH (1 μM) for CYP1A2, DIC (1 μM) for CYP2C9, MP (90 μM) for CYP2C19, DM (1 μM) for CYP2D6, CZX (10 μM) for CYP2E1, Tes (1 μM) for CYP3A4, SN38 (1 μM) for UGT1A1, CACD (100 μM) for UGT1A3, Sero (20 μM) for UGT1A6, and Prop (1 μM) for UGT1A9. All substrates were dissolved in methanol or DMSO. The incubation procedure was carried out as mentioned above, and the reaction was terminated with VER (20 ng/mL) in ESI+ mode and CLP (200 ng/mL) in ESI− mode. In the ex vivo experiments, the activity of enzymes was measured by quantifying the production of various metabolites (nM/mg protein/min). The metabolites and their corresponding enzymes are as follows: APAP from PH, 4-OH-DIC from DIC, 4-OH-MP from MP, DXO from DM, 6-OH-CZX from CZX, 6-OH-Tes from Tes, SN38-G from SN38, CACD-G from CACD, Sero-G from Sero, Prop-G from Prop. The measurements were performed using multiple reaction monitoring (MRM) transitions, which are specific mass spectrometry transitions used for quantification. […]
After 7 days of N-hydap gavage, the liver and kidney tissues were lysed using RIPA buffer supplemented with a 1% protease inhibitor cocktail. […] Western blot signals were detected using an ECL chemiluminescence detection agent. The relative intensity of each protein band was scanned and quantified using Image J software.

T1 sequence (P16662 24-529): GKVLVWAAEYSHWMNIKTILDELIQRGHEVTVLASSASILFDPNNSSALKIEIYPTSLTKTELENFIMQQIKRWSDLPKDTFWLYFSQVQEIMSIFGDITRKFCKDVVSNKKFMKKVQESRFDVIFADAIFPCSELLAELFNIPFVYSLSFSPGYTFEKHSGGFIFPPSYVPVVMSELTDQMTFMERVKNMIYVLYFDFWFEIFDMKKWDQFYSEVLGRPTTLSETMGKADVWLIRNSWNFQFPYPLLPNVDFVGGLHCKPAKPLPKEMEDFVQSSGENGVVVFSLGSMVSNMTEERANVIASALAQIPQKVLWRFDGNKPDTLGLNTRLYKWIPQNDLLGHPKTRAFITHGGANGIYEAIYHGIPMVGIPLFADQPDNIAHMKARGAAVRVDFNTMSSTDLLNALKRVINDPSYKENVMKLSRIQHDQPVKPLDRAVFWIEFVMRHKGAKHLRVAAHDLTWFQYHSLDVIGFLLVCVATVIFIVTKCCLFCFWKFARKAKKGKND

For `CC1CCC2C(C=CC(C)C2C(=O)c2c(O)c(C3(O)CCC(O)C4OC43)cn(O)c2=O)C1` (stereo not shown) [N-hydap, N-Hydroxyapiosporamide], the “contribution of UGT2B7 to formation of N-hydap-G” value (UGT2B7) was “secondary contributors”, the “CYP1A2 Protein expression” value (Cyp1a2; Kidney) was “↑” and the “up-regulation of protein levels of CYP1A2” value (Cyp1a2; mice, 10 mg/kg p.o. 7 days, kidney) was 117%. The “decrease of protein levels of CYP1A2” value (Cyp1a2; mice, p.o. 7 days, liver) was 68%.
